Results from patent US7875606B2, “Izoxazoline derivative and herbicide” (Ihara Chemical Industry Co., Ltd., priority 2001, dated 2011).

Experiments:
Format in all cases: in vivo
[1] = system: Echinochloa oryzicola Vasing.; assay: Herbicidal effect by paddy field pre-emergence treatment; details: wettable powder, active ingredient 1000 g/ha, examined at the 21st day from the treatment
Protocol: (§1) Test For Herbicidal Effect By Paddy Field Pre-Emergence Treatment
(§2) A paddy field soil was filled in a plastic pot of 100 cm^2 and subjected to puddling. Then, seeds of Echinochloa oryzicola Vasing. and Monochoria vaginalis (Murm. f.) Presl var. plantaginea (Roxb.) Solms-Laub. were sowed and water was filled in a depth of 3 cm. Next day, wettable powders produced in accordance with the Formulation 1 were diluted with water and dropped on the water surface. The application amount of each wettable powder was 1,000 g per 1 hectare in terms of the active ingredient. Then, breeding was made in a greenhouse, and the herbicidal effect of each wettable powder was examined at the 21st day from the treatment in accordance with the standard shown in Table 61.

[2] = system: Monochoria vaginalis (Murm. f.) Presl var. plantaginea (Roxb.) Solms-Laub.; assay: as above; details: wettable powder, active ingredient 1000 g/ha, examined at the 21st day from the treatment
Protocol: as §1, §2

[3] = system: Echinochloa crus-galli (L.) Beauv. var. crus-galli; assay: Herbicidal effect by upland field pre-emergence treatment; details: sprayed on the soil surface, active ingredient 1000 g/ha, examined at the 21st day from the treatment
Protocol: (§3) Test For Herbicidal Effect By Upland Field Pre-Emergence Treatment An upland field soil was filled in a plastic pot of 80 cm^2. Seeds of Echinochloa crus-galli (L.) Beauv. var. crus-galli and Setaria viridis (L.) Beauv. were sowed, followed by covering with the same soil. Wettable powders produced in accordance with the Formulation 1 were diluted with water and sprayed uniformly on the soil surface using a small sprayer, in an amount of 1,000 liters per 1 hectare so that the amount of each active ingredient became 1,000 g per 1 hectare. Then, breeding was made in a greenhouse, and the herbicidal effect of each wettable powder was examined at the 21st day from the treatment in accordance with the standard shown in Table 61.

[4] = system: Setaria viridis (L.) Beauv.; assay: as above; details: sprayed on the soil surface, active ingredient 1000 g/ha, examined at the 21st day from the treatment
Protocol: as §3

Cn1nc(C(F)(F)F)c(CS(=O)(=O)C2=NOC(C)(CCl)C2)c1Cl (stereo not shown) [Compound 2, 3-(5-chloro-1-methyl-3-trifluoromethyl-1H-pyrazol-4-ylmethylsulfonyl)-5-chloromethyl-5-methyl-2-isoxazoline]
5: Herbicidal effect index, Echinochloa oryzicola Vasing [1] | Herbicidal effect index, Monochoria vaginalis (Burm. f) Presl Var. plantaginea (Roxb.) Solms-Laub. [2] | Herbicidal effect index, Echinochloa crus-galli (L.) Beauv. Var. crus-galli [3] | Herbicidal effect index, Setaria viridis (L.) Beauv. [4]
